# Source: ChEMBL document CHEMBL1201862, “PubChem BioAssay data set” (2004)
#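 Where inhibition never reached the appropriate level, the endpoint shown equals the highest concentration tested. Otherwise, values were interpolated linearly from a five-concentration, 48-hour dose response in 96-well plates. GI50 = concentration required for 50% inhibition of growth.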 The source made the active and inactive calls. No stated cut-off is given here; in the data, active = GI50 up to about 1.1 µM and inactive = higher.
# Columns and labels:
# Experiment in all cases: NCI-60 cell line screen, 48 h
# SK-MEL-2 = tested on: SK-MEL-2
# SF-268 = tested on: SF-268
# RPMI-8226 = tested on: RPMI-8226
# HCC 2998 = tested on: HCC 2998
# OVCAR-4 = tested on: OVCAR-4
# MDA-N = tested on: MDA-N
# MOLT-4 = tested on: MOLT-4
# ACHN = tested on: ACHN
# U-251 = tested on: U-251
# SNB-19 = tested on: SNB-19
# HCT-116 = tested on: HCT-116
# COLO 205 = tested on: COLO 205
# HOP-92 = tested on: HOP-92
# NCI-H460 = tested on: NCI-H460
# SF-539 = tested on: SF-539
# OVCAR-8 = tested on: OVCAR-8
# A498 = tested on: A498
# Malme-3M = tested on: Malme-3M
# 786-0 = tested on: 786-0
# LOX IMVI = tested on: LOX IMVI
Compound,GI50 (SK-MEL-2),GI50 (SF-268),GI50 (RPMI-8226),GI50 (HCC 2998),GI50 (OVCAR-4),GI50 (MDA-N),GI50 (MOLT-4),GI50 (ACHN),GI50 (U-251),GI50 (SNB-19),GI50 (HCT-116),GI50 (COLO 205),GI50 (HOP-92),GI50 (NCI-H460),GI50 (SF-539),GI50 (OVCAR-8),GI50 (A498),GI50 (Malme-3M),GI50 (786-0),GI50 (LOX IMVI)
Oc1c(OCc2nnc(CCCCCCCCc3nnc(COc4ccc5ccccc5c4O)n3Nc3ccccc3)n2Nc2ccccc2)ccc2ccccc12,9.12 µM (inactive),10.7 µM (inactive),0.682 µM (active),5.26 µM (inactive),5.42 µM (inactive),1.62 µM (inactive),12.7 µM (inactive),0.845 µM (active),12 µM (inactive),11.8 µM (inactive),9.2 µM (inactive),0.558 µM (active),15.7 µM (inactive),1.26 µM (inactive),3.98 µM (inactive),11.2 µM (inactive),16.1 µM (inactive),9.33 µM (inactive),13.3 µM (inactive),
CCOC(=O)/C(=C\NCC(O)c1ccccc1)c1nc2ccccc2[nH]1 (configuration not stated),,17.3 µM (inactive),11.3 µM (inactive),20.4 µM (inactive),23.8 µM (inactive),27.5 µM (inactive),11.8 µM (inactive),11 µM (inactive),,48.9 µM (inactive),28.6 µM (inactive),16.7 µM (inactive),22.1 µM (inactive),17.2 µM (inactive),21.1 µM (inactive),23.2 µM (inactive),20.1 µM (inactive),25.6 µM (inactive),27.5 µM (inactive),19.5 µM (inactive)
CCC/C(Cl)=N\OC(=O)Nc1ccc(F)c([N+](=O)[O-])c1,14.3 µM (inactive),14.2 µM (inactive),9.51 µM (inactive),14.5 µM (inactive),15.6 µM (inactive),21.1 µM (inactive),3.41 µM (inactive),4.97 µM (inactive),18.3 µM (inactive),15.2 µM (inactive),26.2 µM (inactive),3.54 µM (inactive),15 µM (inactive),12.5 µM (inactive),24 µM (inactive),17.5 µM (inactive),21.5 µM (inactive),10.9 µM (inactive),16.8 µM (inactive),21.9 µM (inactive)
CCN(CC)C(=S)SS(=O)(=O)c1ccc(F)cc1,56.4 µM (inactive),> 100 µM (inactive),17.7 µM (inactive),> 100 µM (inactive),> 100 µM (inactive),63.2 µM (inactive),,43.1 µM (inactive),18.8 µM (inactive),> 100 µM (inactive),25.3 µM (inactive),> 100 µM (inactive),31.2 µM (inactive),42.9 µM (inactive),23 µM (inactive),32.1 µM (inactive),> 100 µM (inactive),19.9 µM (inactive),73.3 µM (inactive),19.6 µM (inactive)
COc1ccc2c(-c3ccc(O)cc3)c(Oc3ccccc3)c(=O)oc2c1,> 100 µM (inactive),> 32.9 µM (inactive),2.62 µM (inactive),18.3 µM (inactive),9.62 µM (inactive),> 100 µM (inactive),5.11 µM (inactive),> 34.4 µM (inactive),> 22.9 µM (inactive),,> 23.2 µM (inactive),> 100 µM (inactive),12 µM (inactive),11.9 µM (inactive),24.7 µM (inactive),16.2 µM (inactive),> 31.4 µM (inactive),9.44 µM (inactive),12.3 µM (inactive),8.61 µM (inactive)
COC12C(COC(=O)NCCO)C3=C(C(=O)C(C)=C(N)C3=O)N1CC1NC12 (configuration not stated),30.9 µM (inactive),11.6 µM (inactive),74.8 µM (inactive),34.8 µM (inactive),65.8 µM (inactive),86.1 µM (inactive),35.2 µM (inactive),6.59 µM (inactive),4.05 µM (inactive),16.4 µM (inactive),18.9 µM (inactive),37.7 µM (inactive),30 µM (inactive),5.01 µM (inactive),7.83 µM (inactive),38.3 µM (inactive),60.7 µM (inactive),21.1 µM (inactive),20.9 µM (inactive),13.8 µM (inactive)
O=C(NNC(=S)Nc1ccccc1)c1csc(NC(=S)NC2CCCCC2)n1,> 100 µM (inactive),99.3 µM (inactive),28.8 µM (inactive),10.5 µM (inactive),,50.8 µM (inactive),25.6 µM (inactive),> 100 µM (inactive),48.4 µM (inactive),,67.1 µM (inactive),40.1 µM (inactive),94 µM (inactive),,77.4 µM (inactive),56.5 µM (inactive),> 100 µM (inactive),> 100 µM (inactive),68.7 µM (inactive),26.6 µM (inactive)
